Experimental data: US11656384B2, “Composition, film, lens, solid state imaging element, and compounds” (FUJIFILM Corporation, priority 2017, dated 2023)
Each block holds one compound with its values, some of them ahead of it.

Assay: Dissolution test: solubility of the compound in a solvent at 25° C.
[1] = solvent PGMEA/PGME (90% by mass/10% by mass)
[2] = solvent Diethylene glycol monobutyl ether acetate

Method: By the following method, the solubility of the compound represented by General Formula (I) in a solvent was investigated.
Then, solids were removed using a 0.5 μm TEFLON (registered trademark) filter. Thereafter, the obtained filtrate was caused to volatilize for 3 hours at 150° C. in a vacuum, and the content of residues was measured, thereby quantifying the content of solids dissolved in the solvent.

Structure (SMILES): c1ccc(Nc2nc(Nc3ccccc3)nc(Nc3ccccc3)n2)cc1 [Compound A-1]
- Solubility (solvent Toluene): < 0.5% by mass

Structure (SMILES): N#Cc1ccc(Nc2nc(Nc3ccc(C#N)cc3)nc(Nc3ccc(C#N)cc3)n2)cc1 [Compound A-2]
- Solubility (solvent Cyclohexyl methyl ether): < 0.5% by mass
- Solubility (solvent PGMEA): Less than 0.5% by % by mass

Structure (SMILES): CC(=O)Nc1ccc(Nc2nc(Nc3ccc(NC(C)=O)cc3)nc(Nc3ccc(NC(C)=O)cc3)n2)cc1 [Compound A-3]
- Solubility (solvent Cyclohexanone): < 0.5% by mass
- Solubility (solvent PGME): < 0.5% by mass
- Solubility (solvent PGMEA): Less than 0.5% by % by mass

Structure (SMILES): c1ccc2cc(Nc3nc(Nc4ccc5ccccc5c4)nc(Nc4ccc5ccccc5c4)n3)ccc2c1 [Compound A-4]
- Solubility (solvent Butyl acetate): < 0.5% by mass
- Solubility (solvent PGME): < 0.5% by mass
- Solubility (solvent PGMEA): Less than 0.5% by % by mass

Structure (SMILES): Brc1ccc(Nc2nc(Nc3ccc(Br)cc3)nc(Nc3ccc(Br)cc3)n2)cc1 [Compound A-5]
- Solubility (solvent 3-methoxybutyl acetate): < 0.5% by mass
- Solubility (solvent PGMEA): Less than 0.5% by % by mass

Structure (SMILES): O=[N+]([O-])c1ccc(Nc2nc(Nc3ccc([N+](=O)[O-])cc3)nc(Nc3ccc([N+](=O)[O-])cc3)n2)cc1 [Compound A-6]
- Solubility (solvent Cyclohexyl acetate): < 0.5% by mass
- Solubility (solvent PGMEA): Less than 0.5% by % by mass

Structure (SMILES): c1ccc(-c2ccc(-c3ccc(Nc4nc(Nc5ccc(-c6ccc(-c7ccccc7)cc6)cc5)nc(Nc5ccc(-c6ccc(-c7ccccc7)cc6)cc5)n4)cc3)cc2)cc1 [Compound A-7]
- Solubility (solvent PGMEA): Less than 0.5% by % by mass
- Solubility (solvent PGMEA/PGME (70% by mass/30% by mass)): < 0.5% by mass
- Solubility [1]: < 0.5% by mass

Structure (SMILES): N#Cc1ccc(-c2ccc(Nc3nc(Nc4ccc(-c5ccc(C#N)cc5)cc4)nc(Nc4ccc(-c5ccc(C#N)cc5)cc4)n3)cc2)cc1 [Compound A-8]
- Solubility (solvent Cyclopentanone): < 0.5% by mass
- Solubility (solvent PGMEA): Less than 0.5% by % by mass

Structure (SMILES): CSc1ccc(Nc2nc(Nc3ccc(SC)cc3)nc(Nc3ccc(SC)cc3)n2)cc1 [Compound A-9]
- Solubility (solvent Cyclobutyl ether): < 0.5% by mass
- Solubility [2]: < 0.5% by mass
- Solubility (solvent PGMEA): Less than 0.5% by % by mass

Structure (SMILES): CN(c1ccccc1)c1nc(Nc2ccccc2)nc(Nc2ccccc2)n1 [Compound A-10]
- Solubility (solvent Anisole): < 0.5% by mass
- Solubility (solvent PGMEA): Less than 0.5% by % by mass
- Solubility (solvent Propylene glycol diacetate): < 0.5% by mass

Structure (SMILES): c1ccc(Nc2nc(Nc3ccccc3)nc(Oc3ccccc3)n2)cc1 [Compound A-11]
- Solubility (solvent Dipropylene glycol dimethyl ether): < 0.5% by mass
- Solubility (solvent PGMEA): Less than 0.5% by % by mass

Structure (SMILES): c1ccc(Nc2nc(Nc3ccccc3)nc(Sc3ccccc3)n2)cc1 [Compound A-12]
- Solubility (solvent 3-methoxybutyl acetate): < 0.5% by mass
- Solubility [2]: < 0.5% by mass
- Solubility (solvent PGMEA): Less than 0.5% by % by mass

Structure (SMILES): O=C(Nc1ccccc1)c1cc(C(=O)Nc2ccccc2)cc(C(=O)Nc2ccccc2)c1 [Compound A-14]
- Solubility (solvent Ethyl lactate): < 0.5% by mass
- Solubility (solvent PGMEA): Less than 0.5% by % by mass

Structure (SMILES): O=S(=O)(Nc1ccccc1)c1cccc2c(S(=O)(=O)Nc3ccccc3)cccc12 [Compound A-15]
- Solubility (solvent Cyclohexyl acetate): < 0.5% by mass
- Solubility (solvent PGMEA): Less than 0.5% by % by mass
- Solubility [1]: < 0.5% by mass

Structure (SMILES): O=S(=O)(Nc1ccccc1)c1cccc2c(S(=O)(=O)Nc3ccccc3)cccc12 [Compound A-16]
- Solubility (solvent 3-methoxybutyl acetate): < 0.5% by mass
- Solubility (solvent PGMEA/PGME (80% by mass/20% by mass)): < 0.5% by mass

Other lines, results leading:

- Solubility (solvent Cyclopentanone/PGME (90% by mass/10% by mass)): < 0.5% by mass
Structure (SMILES): O=S(=O)(Nc1ccccc1)c1cccc2c(S(=O)(=O)Nc3ccccc3)cccc12 [Compound A-17]

- Solubility (solvent PGMEA): Less than 0.5% by % by mass
Structure (SMILES): c1ccc(Nc2nc(Nc3ccccc3)nc(Nc3ccc(-c4ccc(-c5ccccc5)cc4)cc3)n2)cc1 [Compound A-19]

- Solubility (solvent PGMEA): Less than 0.5% by % by mass
Structure (SMILES): c1ccc(-c2ccc(-c3ccc(Nc4nc(Nc5ccc(-c6ccc(-c7ccccc7)cc6)cc5)nc(Nc5nc6ccccc6s5)n4)cc3)cc2)cc1 [Compound A-20]

- Solubility (solvent PGMEA): Less than 0.5% by % by mass
Structure (SMILES): c1ccc(-c2ccc(-c3ccc(-c4ccc(Nc5nc(Nc6ccc(-c7ccc(-c8ccc(-c9ccccc9)cc8)cc7)cc6)nc(Nc6ccc(-c7ccc(-c8ccc(-c9ccccc9)cc8)cc7)cc6)n5)cc4)cc3)cc2)cc1 [Compound A-21]

- Solubility (solvent PGMEA): Less than 0.5% by % by mass
Structure (SMILES): Clc1ccc(-c2ccc(Nc3nc(Nc4ccc(-c5ccc(Cl)cc5)cc4)nc(Nc4ccc(-c5ccc(Cl)cc5)cc4)n3)cc2)cc1 [Compound A-22]

- Solubility (solvent PGMEA): Less than 0.5% by % by mass
Structure (SMILES): CN(c1ccccc1)c1nc(Nc2ccc(-c3ccc(-c4ccccc4)cc3)cc2)nc(Nc2ccc(-c3ccc(-c4ccccc4)cc3)cc2)n1 [Compound A-23]

- Solubility (solvent PGMEA): Less than 0.5% by % by mass
Structure (SMILES): N#Cc1ccc(-c2ccc(Nc3nc(Nc4ccc(-c5ccc(C#N)cc5)cc4)nc(Oc4ccccc4)n3)cc2)cc1 [Compound A-24]
